Test results as given in patent publication US20190175491A1, “TOPICAL COMPOSITIONS OF APREMILAST” (TORRENT PHARMACEUTICALS LIMITED, priority 2016, published 2019).

How the values were obtained:
[1] = oral Apremilast; cited from earlier work
[2] = cited from earlier work
Solubility of apremilast = assay type: physicochemical
From the text: Apremilast is insoluble in water. Even in polar solvent phase, only 0.066% of apremilast was found soluble. Therefore, it is challenging to formulate a topical composition of apremilast having an amount, which provides effective concentration of apremilast at the site of action.

SMILES: CCOc1cc([C@@H](CS(C)(=O)=O)N2C(=O)c3cccc(NC(C)=O)c3C2=O)ccc1OC [Apremilast, N-{2-[(1S)-1-(3-Ethoxy-4-methoxyphenyl)-2-(methylsulfonyl)ethyl]-1,3-dioxo-2,3-dihydro-1H-isoindol-4-yl} acetamide]
- most commonly reported adverse reactions [1]: Diarrhea, nausea and headache
- solubility in water [2]: insoluble
- apremilast found soluble in polar solvent phase (Solubility of apremilast): 0.066%
